Laboratory results published in US20140094413A1, “HEPATOCYTE GROWTH FACTOR (HGF) MIMICS AS THERAPEUTIC AGENTS” (WASHINGTON STATE UNIVERSITY, priority 2012, published 2014).
Several values for one entry are separate records, joined by “and”; a condition that tells them apart may be missing. Equal values may be shown once. Entries after “also recorded” stand apart in the source; their conditions may differ. Where a SMILES comes first, the peptide text is derived from it. [ ]: non-standard residue; d: D form. The star is where a group is joined. Nle = CCCC[C@H](N)C(=O)O; Hexanoyl = CCCCCC(=O)*; Ahx = NCCCCCC(=O)O

Columns and labels:
c-Met receptor = assay: c-Met phosphorylation in acute adult rat hippocampal slices; type: cell-based; settings: 30 minutes
Text: Adult Sprague-Dawley rats (250 g+) obtained from Harlan Laboratories (Ca, USA) were anesthetized with isofluorane (Vet One™, MWI, Meridian, Id., USA) and decapitated. The brain was rapidly removed and placed into ice-chilled artificial cerebrospinal fluid (aCSF) for approximately 30 s. Both hemispheres were separated by a mid-saggital cut and both hippocampi removed. Slices were sectioned cross- and length-wise (400 μm) to ensure penetrability of the drug, using a McIlwain tissue chopper (Brinkmann, Gomshall, UK) and transferred to a gassed (95% O2/5% CO2) incubation chamber containing aCSF for 90 minutes at room temperature. Slices were transferred to fresh tubes, aCSF was removed by careful suctioning and replaced with aCSF containing vehicle (aCSF+aCSF), 100 ng/ml with carrier free adult recombinant Hepatocyte Growth Factor (HGF) (R and D Systems, MN, USA) in aCSF, 10^−10 M Hinge (Harding lab), […], 10^−10 M Dihexa (Harding lab) in aCSF, 10^−12 M Dihexa in aCSF or 50 ng/ml HGF+10^−12 M Dihexa in aCSF for 30 minutes at 37° C. with gentle rocking. aCSF was removed and the slices were lysed using RIPA buffer (Upstate/Milipore, Billerica, Mass.) and inhibitor Cocktails I and II (Sigma, St. Louis, Mo.), sonicated on ice and clarified by centrifugation for 30 minutes, 13,000 rpm at 4° C. The supernatant was removed from the pellet and stored at −80° C. or processed immediately for gel electrophoresis.
Protein concentration of the samples was quantified using the BCA method (Pierce, Rockford, Ill.) following the manufacturers protocol. Samples were added to SDS-PAGE buffer and boiled for 10 min. before loading onto a 4-12% Bis-Tris pre-cast gel (Invitrogen, Carlsbad, Calif.) for electrophoresis. Proteins were transferred onto PVDF membranes (Bio Rad, Hercules, Calif.) and blocked with AquaBlock™ (New England Biolabs, Ipswich, Mass.) for 1 hour at room temperature (RT). Primary antibody incubation was done in AquaBlock™ with rabbit anti-Met and […] phospho-Met (Tyr1234/1235) (1:1000, Cell Signaling Technology, Danvers, Mass.) overnight at 4° C. Alternating washes were done with PBS and PBST. Secondary antibody (IRDye) (Rockland, Gilbertsville, Pa.) incubations were done in AquaBlock™ for one hour at RT. Blots were imaged using LI-COR Odyssey Infrared Imaging System (LI-COR Biosciences, Lincoln, Nebr.).

hippocampal neurons [1] = assay: Whole-cell recordings of mEPSCs in dissociated hippocampal neurons; type: cell-based, rat; parameters: unit not given beside the values; settings: 5 days
hippocampal neurons [2] = assay: Immunocytochemistry: correlation of spines with synaptic markers; type: cell-based, rat; settings: 10^−12 M, 5 days
Method: (§1) Transfected neurons were treated, fixed and stained. Briefly, cells were permeablized with 0.1% Triton X-100 detergent (Bio-Rad; Hercules, Calif.) for 10 minutes. An 8% bovine serum albumin (Intergen Company; Burlington, Mass.) in PBS was used to prevent non-specific binding for one hour at R.T.; Primary antibody incubations were at a 1:2500 dilution (see below) in 1% BSA in PBS at 4° C. overnight. Secondary antibody, 1:3000 Alexafluor 488 goat-anti-mouse (Invitrogen: Carlsbad, Calif.) was applied for two hours at room temperature. Coverslips were mounted with ProLong Gold anti-fade reagent (Invitrogen; Carlsbad, Calif.) and all washes were done with PBS. Imaging and analysis were performed as described above. For presynaptic excitatory transmission the VGLUT1 (Synaptic Systems, Goettingen, Germany) marker (Balschun, Moechars et al.) was employed and for general presynaptic transmission synapsin1 (Synaptic Systems, Goettingen, Germany) (Ferreira and Rapoport 2002) was applied. A postsynaptic function was established by PSD-95 (Milipore, Billerica, Mass.) (El-Husseini, Schnell et al. 2000). In each instance the total number of spines was counted for the treatment groups, control, Nle1-AngIV and Dihexa, to ensure an active phenotype. The total number of actin enriched spines adjacent to VGLUT1 or Synapsin were counted and converted to a percentage as the percent correlation of treatment-induced spines to presynaptic markers is a strong indicator of ability to transmit excitatory signals.
as §1, with “fixed and stained as previously described in Chapter two. Briefly, cells” for “fixed and stained. Briefly, cells”, “enriched spines (red) adjacent to” for “enriched spines adjacent to”

CA1 hippocampal neurons = assay: Spinogenesis in organotypic hippocampal slice cultures; type: cell-based, rat
Method: (§2) Hippocampi from P4 Sprague Dawley rats were cultured as previously described (Wayman, Impey et al. 2006). Briefly, 400 μm slices were cultured on (Milipore, Billerica, Mass.) for 3 days after which they were biolistically transfected with tomato fluorescent protein (TIT) using a Helios Gen Gun (BioRad, Hercules, Calif.), according to the manufacturer's protocol, to visualize dendritic arbors. Following a 24 hour recovery period slices were stimulated with vehicle (H2O), […] Nle1-AngIV or Dihexa for 2 days. Slices were fixed and mounted. Hippocampal CA1 neuronal processes were imaged and measured as described above.
as §2, with “(TFP)” for “(TIT)”, “Gene” for “Gen”, “with” for “with vehicle (H2O),”

[3] = saturating doses: HGF 100 ng/ml, Dihexa 10^−10 M
[4] = sub-threshold doses: HGF 50 ng/ml, Dihexa 10^−12 M

| Compound | c-Met phosphorylation vs vehicle (aCSF) (c-Met receptor; [3]) | c-Met phosphorylation vs vehicle (aCSF) (c-Met receptor; [4]) | mEPSC mean frequency (hippocampal neurons [1]; 10^−12 M (each)) | % Correlation PSD-95 (hippocampal neurons [2]) [%] | % Correlation Synapsin (hippocampal neurons [2]) [%] | % Correlation VGLUT1 (hippocampal neurons [2]) [%] | Number of spines/50 μm (PSD-95 experiment) (hippocampal neurons [2]) [spines/50 μm] | Number of spines/50 μm (Synapsin experiment) (hippocampal neurons [2]) [spines/50 μm] | Number of spines/50 μm (VGLUT1 experiment) (hippocampal neurons [2]) | Spines per 50 μm dendrite length, CA1 neurons (CA1 hippocampal neurons; 10^−12 M, 2 days) | mEPSC mean frequency (hippocampal neurons [1]; HGF 10 ng/ml) | Spines per 50 μm dendrite length, CA1 neurons (CA1 hippocampal neurons; HGF 10 ng/ml, 48 hours) |
| --- | --- | --- | --- | --- | --- | --- | --- | --- | --- | --- | --- | --- |
| CCCCCC(=O)N[C@@H](Cc1ccc(O)cc1)C(=O)N[C@H](C(=O)NCCCCCC(N)=O)[C@@H](C)CC [Dihexa, N-hexanoic-Tyr-Ile-(6)-aminohexanoic amide] (Hexanoyl-Tyr-Ile-[Ahx]-NH2) | both increased c-Met phosphorylation; also recorded: effectively augment c-Met phosphorylation | not statistically different from control treated slices; also recorded: did not significantly increase c-Met receptor phosphorylation | 6.75±0.99 and 8.25±0.56 | 98.71 | 96.3 | 94.4 | 43 | 37 | 44.2 spines/50 μm and 44 spines/50 μm | 11 spines per 50 μm dendrite length and 15.0 spines per 50 μm dendrite length |  |  |
| CCCC[C@H](N)C(=O)N[C@@H](Cc1ccc(O)cc1)C(=O)N[C@H](C(=O)N[C@@H](Cc1c[nH]cn1)C(=O)N1CCC[C@H]1C(=O)N[C@@H](Cc1ccccc1)C(=O)O)[C@@H](C)CC [Nle1-AngIV, reference compound] (H-[Nle]YIHPF-OH; N-terminus and C-terminus assumed) |  |  |  | 97.38 | 94.2 | 95.1 | 36 | 31 | 39.4 spines/50 μm and 39 spines/50 μm | 11 spines per 50 μm dendrite length |  |  |
| HGF: Hepatocyte growth factor, recombinant, purchased from R&D Systems | both increased c-Met phosphorylation; also recorded: effectively augment c-Met phosphorylation | not statistically different from control treated slices; also recorded: did not significantly increase c-Met receptor phosphorylation |  |  |  |  |  |  |  |  | 7.09±0.53 and 9.66±0.20 | 18.5 spines per 50 μm dendrite length |
